Assay results as given in paper PMC6270778, “Novel Cinnamic Acid Derivatives as Antioxidant and Anticancer Agents: Design, Synthesis and Modeling Studies” (Molecules, 2014).

What was measured:
[1] = test system: HT-29 (colon); experiment: SRB cytotoxicity assay, HT-29; format: cell-based; settings: Homo sapiens, 50% growth inhibition, 48 h exposure
Description: (§1) Human cancer cell lines used as targets were HT-29 (colon), A-549 (lung), OAW-42 (ovarian), MDA-MB-231 (breast), HeLa (immortal cells from cervical cancer). All cells were obtained from the American Type Culture Collection (ATCC). Cells were routinely grown as monolayer cell cultures in T-75 flasks (Costar) in an atmosphere containing 5% CO2 in air and 100% relative humidity at 37 °C and subcultured twice a week, restricting the total number of cell passages below 20. The culture medium used was Dulbecco’s modified Eagle’s medium (DMEM, Gibco, Grand Island, NY, USA) supplemented with 10% fetal bovine serum (Gibco), 2 mM glutamine (Sigma), 100 μg/mL streptomycin and 100 IU/mL penicillin.
(§2) Cell passages were carried out by detaching adherent, logarithmically growing cells after addition of 2–3 mL of a mixture of 0.05% solution of trypsin (Gibco, 1:250) in phosphate-buffered saline (PBS) with 0.02% EDTA and incubation for 3–5 min at 37 °C. For the experiments, cells were plated (100 μL containing 10,000 cells/well) in 96-well flat-bottom microplates microplates (Costar-Corning, Acton, MA 01720, USA) so that untreated cells were in exponential growth phase at the time of cytotoxicity evaluation. Cells were left for 24 h at 37 °C to resume exponential growth and stabilization and afterwards exposed to tested agents for 48 h by the addition of an equal volume (100 μL) of either complete culture medium (control wells), or twice the final drug concentrations diluted in complete culture medium (test wells). Drug cytotoxicity was measured by means of the SRB colorimetric assay estimating the survival fractions (SF) as the percent of control (untreated cells) absorbance. The SRB assay was carried out as previously described and modified by our group. In brief, culture medium was aspirated prior to fixation using a microplate-multiwash device (Tri-Continent Scientific, Inc., Grass Valley, CA, USA) and 50 μL of 10% cold (4 °C) trichloroacetic acid (TCA) were gently added to the wells. Microplates were left for 30 min at 4 °C, washed five times with deionized water and left to dry at room temperature for at least 24 h. Subsequently, 70 μL of 0.4% (w/v) sulforhodamine B (Sigma) in 1% acetic acid solution were added to each well and left at room temperature for 20 min. SRB was removed and the plates were washed five times with 1% acetic acid before air drying. Bound SRB was solubilized with 200 μL of 10 mM unbuffered Tris-base solution and plates were left on a plate shaker for at least 10 min. Absorbance was read in a 96-well plate reader at 492 nm subtracting the background measurement at 620 nm. The test optical density (OD) value was defined as the absorbance of each individual well, minus the blank value (“blank” is the mean optical density of the background control wells, n = 8). Mean values and the coefficient of variation (CV) from six replicate wells were calculated automatically. Results were expressed as the “survival fraction” (SF), as shown below.
(§3) For each tested compound a dose-effect curve was produced. Sextuplicate determinations gave a CV (Standard Deviation/mean %) of much less than 10%, resulting in standard error (SE) which was very low in all cases. The data showing inhibition of cellular growth are expressed as the fraction of cells that remains unaffected (fu) (survival fraction, SF), which is derived from the following equation: fu = ODx/ODc where ODx and ODc represent the test and the control optical density, respectively.

[2] = test system: OAW-42 (ovarian); experiment: SRB cytotoxicity assay, OAW-42; format: cell-based; settings: Homo sapiens, 50% growth inhibition, 48 h exposure
Description: as §1, §2, §3

[3] = target: T1, soybean lipoxygenase (Glycine max, UniProt P08170); experiment: Soybean lipoxygenase inhibition study in vitro (UV-based enzyme assay); format: biochemical; settings: for IC50: sodium linoleate 0.1 mM, read-out: LOX IC50 (±SD); for inhibition at 10 µM: 0.01 mM, read-out: LOX inhibition % (±SD)
T1 construct: purchased Sigma Chemical, Co. (St. Louis, MO, USA)
T1 sequence (P08170 1-839): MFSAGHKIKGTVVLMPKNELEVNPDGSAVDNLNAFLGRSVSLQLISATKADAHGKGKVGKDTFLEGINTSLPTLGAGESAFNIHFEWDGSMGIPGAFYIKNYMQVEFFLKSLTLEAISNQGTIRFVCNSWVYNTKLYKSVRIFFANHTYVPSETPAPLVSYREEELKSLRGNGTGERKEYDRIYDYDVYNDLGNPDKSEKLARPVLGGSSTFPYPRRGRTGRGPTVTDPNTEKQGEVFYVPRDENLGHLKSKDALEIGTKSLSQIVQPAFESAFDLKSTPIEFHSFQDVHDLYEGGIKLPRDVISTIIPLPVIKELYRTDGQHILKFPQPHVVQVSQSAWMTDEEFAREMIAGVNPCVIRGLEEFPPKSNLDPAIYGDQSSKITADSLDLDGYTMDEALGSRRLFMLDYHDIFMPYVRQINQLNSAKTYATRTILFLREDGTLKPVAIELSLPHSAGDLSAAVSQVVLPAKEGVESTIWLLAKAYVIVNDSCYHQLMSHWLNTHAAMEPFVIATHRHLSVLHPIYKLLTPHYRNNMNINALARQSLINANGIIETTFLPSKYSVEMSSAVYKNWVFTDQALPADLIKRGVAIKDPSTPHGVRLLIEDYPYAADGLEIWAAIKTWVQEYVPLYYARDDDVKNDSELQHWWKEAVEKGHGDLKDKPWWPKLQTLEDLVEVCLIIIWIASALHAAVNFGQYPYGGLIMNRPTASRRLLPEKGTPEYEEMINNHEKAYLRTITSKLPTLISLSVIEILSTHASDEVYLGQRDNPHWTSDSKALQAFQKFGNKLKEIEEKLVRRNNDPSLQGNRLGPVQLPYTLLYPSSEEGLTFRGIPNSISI
Description: The evaluation of the novel acids against soybean lipoxygenase LOX was accomplished by the UV-based enzyme assay of Pontiki and Hadjipavlou-Litina. This assay may be used as a qualitative or semi-quantitative screen for such activity.
In vitro inhibitory LOX assay is accomplished as described previously. The novel derivatives for testing (stock solutions 10 mM in DMSO) were incubated at room temperature with sodium linoleate (0.1 mM) and 0.2 mL of LOX enzyme solution (1/9 × 10^−4w/v in saline). The conversion of sodium linoleate to 13-hydroperoxylinoleic acid was measured at 234 nm and compared with the reference inhibitor. Several concentrations were used for the IC50 determination (Table 2).

Row | Structure (SMILES) | IC50 [1] | melting point | IC50 [2] | IC50 [3] | inhibition at 10 µM [3]
1 | N#Cc1ccc(C=C(C(=O)O)c2ccccc2)cc1 [Compound 1i, 3-(4-Cyanophenyl)-2-phenylacrylic acid] | > 240 µM | 155 to 157 °C | > 240 µM | 60 ± 0.4 µM | 
2 | N#Cc1ccc(C=CC(=O)O)cc1 [Compound 1ii, 3-(4-Cyanophenyl)acrylic acid] | > 240 µM | 258 to 260 °C | > 240 µM |  | 27%
3 | O=C(O)C(=CC=Cc1ccc([N+](=O)[O-])cc1)c1ccccc1 [Compound 2i, 5-(4-Nitrophenyl)-2-phenylpenta-2,4-dienoic acid] | 141 ± 1.8 µM | 163 to 165 °C | 160 ± 1.1 µM | 66.5 ± 1.2 µM | 
4 | O=C(O)C=CC=Cc1ccc([N+](=O)[O-])cc1 [Compound 2ii, 5-(4-Nitrophenyl)penta-2,4-dienoic acid] | > 240 µM | 170 to 172 °C | > 240 µM |  | 31%
5 | O=C(O)C(=CC=Cc1ccccc1)c1ccccc1 [Compound 3i, 2,5-Diphenylpenta-2,4-dienoic acid] | > 240 µM | 145 to 147 °C | > 240 µM | 74 ± 1.7 µM | 
6 | O=C(O)C=CC=Cc1ccccc1 [Compound 3ii, 5-Phenylpenta-2,4-dienoic acid] | > 240 µM |  | > 240 µM |  | 24%
7 | O=C(O)C(=CC(Br)=Cc1ccccc1)c1ccccc1 [Compound 4i, 4-Bromo-2,5-diphenylpenta-2,4-dienoic acid] | > 240 µM | 135 to 136 °C | 174 ± 1.8 µM | 74 ± 1.8 µM | 
8 | O=C(O)C=CC(Br)=Cc1ccccc1 [Compound 4ii, 4-Bromo-5-phenylpenta-2,4-dienoic acid] | 54 ± 1.1 µM | 169 to 171 °C | 63.5 ± 0.8 µM | 10 ± 0.05 µM | 
